# Assays:
# morningglory [1] = assay: Test A pre-/postemergence greenhouse test; assay type: in vivo, Ipomoea spp.; conditions: for Morningglory plant response rating: 0 to 100 scale
# How it was run: (§1)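 Each test compound, dissolved in a non-phytotoxic solvent mixture with surfactant, was sprayed directly onto seeded soil (loam/sand blend) and, at the same moment, onto seedlings carrying one to two leaves. Around ten greenhouse days later, plants were rated visually for injury relative to untreated controls.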
# soybean = assay: Test C pre-/postemergence test; assay type: in vivo, Glycine max; conditions: Preemergence, 31 g ai/ha; scale 0 to 100 (0 no effect, 100 complete control)
# How it was run: (§2)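 Compounds in a non-phytotoxic solvent with surfactant applied preemergence to seeded pots and, at the same time, postemergence to plants 2–18 cm tall (1- to 4-leaf stage). Paddy tests: pots flooded to 3 cm, compound applied into the water, depth held throughout.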
# umbrella sedge = assay: Test C flooded paddy test; assay type: in vivo, Cyperus difformis; conditions: Flood
# How it was run: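 Test compounds are applied straight into paddy water held 3 cm above the soil surface, with that flood maintained for the whole test. After 13 to 15 days in the greenhouse, each species is scored visually relative to controls.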
# pigweed = assay: Test C pre-/postemergence test; assay type: in vivo, Amaranthus retroflexus; conditions: Preemergence
# How it was run: as §2
# [2] = test system: common (oilseed) sunflower; assay: Test C pre-/postemergence test; assay type: in vivo, Helianthus annuus; conditions: Preemergence
# How it was run: as §2
# corn = assay: Test C pre-/postemergence test; assay type: in vivo, Zea mays
# How it was run: as §2
# wheat = assay: Test C pre-/postemergence test; assay type: in vivo, Triticum aestivum; conditions: Preemergence
# How it was run: as §2
# kochia = assay: Test C pre-/postemergence test; assay type: in vivo, Kochia scoparia; conditions: Preemergence
# How it was run: as §2
# green foxtail = assay: Test C pre-/postemergence test; assay type: in vivo, Setaria viridis; conditions: Preemergence
# How it was run: as §2
# woolly cupgrass = assay: Test C pre-/postemergence test; assay type: in vivo, Eriochloa villosa; conditions: Preemergence
# How it was run: as §2
# crabgrass = assay: Test C pre-/postemergence test; assay type: in vivo, Digitaria sanguinalis; conditions: Preemergence
# How it was run: as §2
# morningglory [3] = assay: Test C pre-/postemergence test; assay type: in vivo, Ipomoea coccinea; conditions: Preemergence
# How it was run: as §2
# barnyardgrass = assay: Test A pre-/postemergence greenhouse test; assay type: in vivo, Echinochloa crus-galli; conditions: for Barnyardgrass plant response rating: 0 to 100 scale
# How it was run: as §1
# Italian ryegrass = assay: Test C pre-/postemergence test; assay type: in vivo, Lolium multiflorum; conditions: Preemergence
# How it was run: as §2
# yellow nutsedge = assay: Test C pre-/postemergence test; assay type: in vivo, Cyperus esculentus; conditions: Preemergence
# How it was run: as §2
# cocklebur = assay: Test C pre-/postemergence test; assay type: in vivo, Xanthium strumarium
# How it was run: as §2
# blackgrass = assay: Test C pre-/postemergence test; assay type: in vivo, Alopecurus myosuroides
# How it was run: as §2
# [4] = Postemergence, 125 g ai/ha, 0 is no effect, 100 is complete control
# [5] = Postemergence, 500 g ai/ha, 0 is no effect, 100 is complete control
# [6] = Preemergence, 125 g ai/ha, 0 no effect, 100 complete control
# [7] = Preemergence, 500 g ai/ha, 0 to 100 scale where 0 is no effect and 100 is complete control
# [8] = 31 g ai/ha, scale 0 to 100 (0 no effect, 100 complete control)
# [9] = 62 g ai/ha, Preemergence, scale 0 to 100
# [10] = Preemergence, 31 g ai/ha, scale 0 to 100 (0 no effect, 100 complete control)
# [11] = preemergence, 125 g ai/ha, scale 0 (no effect) to 100 (complete control)
structure (smiles),measurement,setting,value
Cc1cc[n+]([O-])c([S+]([O-])Cc2c(C(F)(F)F)nn(C)c2OCC(F)(F)F)c1 (racemic) [Compound 30],Morningglory plant response rating,morningglory [1]; [4],70
same,Morningglory plant response rating,morningglory [1]; [5],90
same,Morningglory plant response rating,morningglory [1]; [6],100
same,"Plant response rating, Morningglory",morningglory [1]; [7],100
same,"Plant response rating, Soybean",soybean,60
same,"Plant response rating, Sedge, Umbrella",umbrella sedge; [8],80
same,"Plant response rating, Sedge, Umbrella","umbrella sedge; 62 g ai/ha, scale 0 to 100, 0 no effect, 100 complete control, 13 to 15 days",100
same,"Plant response rating, Sedge, Umbrella","umbrella sedge; 125 g ai/ha, scale 0 to 100, 0 no effect, 100 complete control, 13 to 15 days",100
same,"Plant response rating, Sedge, Umbrella","umbrella sedge; 250 g ai/ha, scale 0 to 100, 0 no effect, 100 complete control, 13 to 15 days",100
same,Pigweed plant response rating,"pigweed; 62 g ai/ha, scale 0 to 100",100
same,"Plant response rating, Pigweed",pigweed; [8],100
same,Sunflower plant response rating,"[2]; 62 g ai/ha, scale 0 to 100",70
same,"Plant response rating, Sunflower",[2]; [8],40
same,Corn plant response rating,corn; [9],40
same,"Plant response rating, Corn",corn; [10],5
same,"Plant response rating (0 to 100), Corn","corn; Preemergence, 250 g ai/ha",98
same,Corn plant response rating,corn; [11],85
same,Wheat plant response rating,"wheat; 62 g ai/ha, scale 0 to 100",25
same,"Plant response rating, Wheat",wheat; [8],0
same,Kochia plant response rating,"kochia; 62 g ai/ha, scale 0 to 100",100
same,"Plant response rating, Kochia",kochia; [8],100
same,"Foxtail, Green plant response rating","green foxtail; 62 g ai/ha, scale 0 to 100",100
same,"Plant response rating, Foxtail, Green",green foxtail; [8],100
same,"Plant response rating (0 to 100), Foxtail, Green",green foxtail; 250 g ai/ha,100
same,"Cupgrass, Woolly plant response rating","woolly cupgrass; 62 g ai/ha, scale 0 to 100",100
same,"Plant response rating, Cupgrass, Woolly",woolly cupgrass; [8],50
same,"Plant response rating (0 to 100), Cupgrass, Woolly",woolly cupgrass; 250 g ai/ha,100
same,"Crabgrass, Large plant response rating","crabgrass; 62 g ai/ha, scale 0 to 100",98
same,"Plant response rating, Crabgrass, Large",crabgrass; [8],98
same,"Plant response rating (0 to 100), Crabgrass, Large",crabgrass; 250 g ai/ha,100
same,Morningglory plant response rating,"morningglory [3]; 62 g ai/ha, scale 0 to 100",100
same,"Plant response rating, Morningglory",morningglory [3]; [8],100
same,Barnyardgrass plant response rating,barnyardgrass; [4],70
same,Barnyardgrass plant response rating,barnyardgrass; [5],90
same,Barnyardgrass plant response rating,barnyardgrass; [6],100
same,"Plant response rating, Barnyardgrass",barnyardgrass; [7],100
same,"Ryegrass, Italian plant response rating","Italian ryegrass; 62 g ai/ha, scale 0 to 100",70
same,"Plant response rating, Ryegrass, Italian",Italian ryegrass; [8],0
same,"Nutsedge, Yellow plant response rating","yellow nutsedge; 62 g ai/ha, scale 0 to 100",70
same,"Plant response rating, Nutsedge, Yellow",yellow nutsedge; [8],65
same,Cocklebur plant response rating,cocklebur; [9],0
same,"Plant response rating, Cocklebur",cocklebur; [10],0
same,"Plant response rating (0 to 100), Cocklebur","cocklebur; Preemergence, 250 g ai/ha",85
same,Cocklebur plant response rating,cocklebur; [11],80
same,Blackgrass plant response rating,blackgrass; [9],100
same,"Plant response rating, Blackgrass",blackgrass; [10],80
same,"Plant response rating (0 to 100), Blackgrass","blackgrass; Preemergence, 250 g ai/ha",100
same,Blackgrass plant response rating,blackgrass; [11],100

# — patent US20100298141A1, “SUBSTITUTED PYRIDINE N-OXIDE HERBICIDES” (E. I. DU PONT DE NEMOURS AND COMPANY, priority 2007, published 2010)
